Measured values as given in ChEMBL document CHEMBL1156997, “4,7-Dichloro benzothien-2-yl sulfonylaminomethyl boronic acid: first boronic acid-derived beta-lactamase inhibitor with class A, C, and D activity” (Bioorg Med Chem Lett, 2010).
pIC50: −log10 of the molar value.

Key:
[1] = Inhibition of Pseudomonas aeruginosa beta-lactamase TEM-1
Beta-lactamase SHV-5 = Beta-lactamase SHV-5 (Klebsiella pneumoniae, UniProt P0A3M1); experiment: Inhibition of Klebsiella pneumoniae beta-lactamase SHV5
Beta-lactamase [2] = target: Beta-lactamase (Enterobacter cloacae, UniProt P05364); experiment: Inhibition of Enterobacter colacae P99 Beta-lactamase
Sequence of Beta-lactamase (Enterobacter cloacae, UniProt P05364) (P05364 whole entry): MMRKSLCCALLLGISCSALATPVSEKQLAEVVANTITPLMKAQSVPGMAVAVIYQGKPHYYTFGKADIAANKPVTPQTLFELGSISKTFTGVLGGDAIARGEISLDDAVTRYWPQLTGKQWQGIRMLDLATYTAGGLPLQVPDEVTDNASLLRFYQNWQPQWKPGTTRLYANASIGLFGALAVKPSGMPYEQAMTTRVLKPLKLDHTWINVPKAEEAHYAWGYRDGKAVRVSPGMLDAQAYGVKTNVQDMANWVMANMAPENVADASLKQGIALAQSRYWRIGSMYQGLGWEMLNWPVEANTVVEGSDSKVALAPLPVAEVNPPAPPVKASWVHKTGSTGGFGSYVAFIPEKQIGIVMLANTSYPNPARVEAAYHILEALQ

Beta-lactamase [3] = target: Beta-lactamase (Acinetobacter baumannii, UniProt Q8RLA6); experiment: Inhibition of Acinetobacter baumannii beta-lactamase OXA40
Sequence of Beta-lactamase (Acinetobacter baumannii, UniProt Q8RLA6) (Q8RLA6 whole entry): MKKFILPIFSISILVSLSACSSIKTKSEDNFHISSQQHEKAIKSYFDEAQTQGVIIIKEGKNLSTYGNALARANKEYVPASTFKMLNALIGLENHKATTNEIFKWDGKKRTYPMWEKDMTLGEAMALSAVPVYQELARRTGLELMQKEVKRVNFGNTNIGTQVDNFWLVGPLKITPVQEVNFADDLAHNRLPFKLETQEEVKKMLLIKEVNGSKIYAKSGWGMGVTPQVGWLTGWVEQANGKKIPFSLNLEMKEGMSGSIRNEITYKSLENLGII

Beta-lactamase [4] = target: Beta-lactamase (Pseudomonas aeruginosa (strain ATCC 15692 / PAO1 / 1C / PRS 101 / LMG12228), UniProt P24735); experiment: Inhibition of Pseudomonas aeruginosa beta-lactamase AmpC
Sequence of Beta-lactamase (Pseudomonas aeruginosa (strain ATCC 15692 / PAO1 / 1C / PRS 101 / LMG12228), UniProt P24735) (P24735 whole entry): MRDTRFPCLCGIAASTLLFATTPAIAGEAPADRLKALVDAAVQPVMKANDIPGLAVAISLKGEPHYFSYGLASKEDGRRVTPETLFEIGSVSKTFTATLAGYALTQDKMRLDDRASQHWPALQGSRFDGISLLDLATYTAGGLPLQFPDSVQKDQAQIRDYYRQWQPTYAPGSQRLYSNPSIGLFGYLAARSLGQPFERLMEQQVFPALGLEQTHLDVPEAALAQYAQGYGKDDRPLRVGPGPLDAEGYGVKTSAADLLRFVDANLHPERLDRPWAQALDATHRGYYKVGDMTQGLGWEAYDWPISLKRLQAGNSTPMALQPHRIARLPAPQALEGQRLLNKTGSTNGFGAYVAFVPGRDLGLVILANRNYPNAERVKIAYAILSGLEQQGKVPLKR

[5] = target: Beta-lactamase (Pseudomonas aeruginosa (strain ATCC 15692 / PAO1 / 1C / PRS 101 / LMG12228)) (UniProt P24735); experiment: Inhibition of Pseudomonas aeruginosa beta-lactamase AmpC at 2 uM
Sequence of Beta-lactamase (Pseudomonas aeruginosa (strain ATCC 15692 / PAO1 / 1C / PRS 101 / LMG12228)) (P24735 27-397 limits assumed): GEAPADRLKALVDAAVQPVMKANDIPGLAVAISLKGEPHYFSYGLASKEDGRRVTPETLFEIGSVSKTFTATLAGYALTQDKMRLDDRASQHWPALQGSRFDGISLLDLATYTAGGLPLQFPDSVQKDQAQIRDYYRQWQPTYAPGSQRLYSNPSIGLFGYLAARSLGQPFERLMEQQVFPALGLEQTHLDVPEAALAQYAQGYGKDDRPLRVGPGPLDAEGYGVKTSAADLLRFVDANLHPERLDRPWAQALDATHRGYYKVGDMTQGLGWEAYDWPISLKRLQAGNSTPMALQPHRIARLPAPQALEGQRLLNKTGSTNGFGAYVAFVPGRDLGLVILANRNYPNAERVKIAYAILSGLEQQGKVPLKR

[6] = target: Beta-lactamase (Pseudomonas aeruginosa (strain ATCC 15692 / PAO1 / 1C / PRS 101 / LMG12228)) (UniProt P24735); experiment: Inhibition of Pseudomonas aeruginosa beta-lactamase AmpC at 0.8 uM

Sequence of Beta-lactamase SHV-5 (P0A3M1 whole entry): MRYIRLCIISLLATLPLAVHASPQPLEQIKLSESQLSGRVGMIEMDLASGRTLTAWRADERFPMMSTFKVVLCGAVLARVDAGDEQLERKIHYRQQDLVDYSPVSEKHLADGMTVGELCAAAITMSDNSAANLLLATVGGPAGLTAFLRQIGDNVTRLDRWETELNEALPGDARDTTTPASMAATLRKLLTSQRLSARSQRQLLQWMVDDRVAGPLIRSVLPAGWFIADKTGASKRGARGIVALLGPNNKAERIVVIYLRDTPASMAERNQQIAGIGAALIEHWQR

Row | Compound | inhibition [5] [%] | further results
1 | O=S(=O)(NCB(O)O)c1cc2c(Cl)ccc(Cl)c2s1 | – | pIC50 [1]: 5.96; pIC50 (Beta-lactamase SHV-5): 6.24; pIC50 (Beta-lactamase [2]): 6.21; pIC50 (Beta-lactamase [3]): 5.25; pIC50 (Beta-lactamase [4]): 5.92
2 | O=C(CC(=O)C(F)(F)F)c1ccccc1 | 18 | –
3 | O=C(CC(=O)C(F)(F)F)c1ccco1 | 14 | –
4 | CC(C(=O)c1ccccc1)C(=O)C(F)(F)F (configuration not stated) | 11 | –
5 | O=C(CC(=O)C(F)(F)F)c1cccnc1 | 19 | –
6 | O=S(=O)(NCB(O)O)c1ccccc1 | – | inhibition [6]: 29%
7 | CC(C(=O)c1cccs1)C(=O)C(F)(F)F (configuration not stated) | 11 | –

Continued, in another order:

Row | inhibition [5] [%] | Compound | further results
8 | 18 | O=C(O)C1CCCN1S(=O)(=O)c1ccccc1 (configuration not stated) | –
9 | -10 | CN(CC(=O)O)S(=O)(=O)c1ccc(N)cc1 | –
10 | 4 | N#Cc1cc(Br)cc(S(=O)(=O)NCC(=O)O)c1 | –
11 | 18 | O=C(O)CNS(=O)(=O)c1ccc(CCCCC2CCNCC2)cc1 | –
12 | 5 | O=C(O)C1CCN1S(=O)(=O)c1cccnc1 (configuration not stated) | –
13 | 9 | O=C(O)C1CCN1S(=O)(=O)c1cc(Cl)cc(Cl)c1 (configuration not stated) | –
